In the assay the target is T1, calpain-I isolated from human erythrocytes (Homo sapiens, UniProt P07384).
T1 construct: calpain-I—isolated from human erythrocytes (Calbiochem #208713); purchased Calbiochem 208713; host or cells: human erythrocytes (native tissue isolate)
T1 sequence (P07384 1-714): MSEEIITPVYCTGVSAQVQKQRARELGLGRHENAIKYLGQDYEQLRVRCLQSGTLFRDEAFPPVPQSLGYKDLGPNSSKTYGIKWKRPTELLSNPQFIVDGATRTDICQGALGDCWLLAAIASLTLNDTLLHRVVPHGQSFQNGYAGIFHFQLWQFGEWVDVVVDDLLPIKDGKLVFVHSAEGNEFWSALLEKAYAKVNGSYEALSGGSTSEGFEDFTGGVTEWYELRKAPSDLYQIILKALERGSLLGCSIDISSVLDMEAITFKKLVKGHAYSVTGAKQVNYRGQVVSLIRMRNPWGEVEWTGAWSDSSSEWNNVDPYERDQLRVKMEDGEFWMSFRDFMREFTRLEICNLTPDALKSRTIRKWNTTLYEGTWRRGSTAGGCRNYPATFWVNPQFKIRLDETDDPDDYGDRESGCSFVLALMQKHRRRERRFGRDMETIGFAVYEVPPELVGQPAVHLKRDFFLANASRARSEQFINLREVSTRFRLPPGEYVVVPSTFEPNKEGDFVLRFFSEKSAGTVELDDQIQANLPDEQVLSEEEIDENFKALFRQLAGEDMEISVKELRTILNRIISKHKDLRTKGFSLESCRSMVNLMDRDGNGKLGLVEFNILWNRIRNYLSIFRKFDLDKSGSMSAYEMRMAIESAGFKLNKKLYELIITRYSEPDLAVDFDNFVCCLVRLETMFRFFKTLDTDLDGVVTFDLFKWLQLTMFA
T1 sequence (P04632 1-268 partner): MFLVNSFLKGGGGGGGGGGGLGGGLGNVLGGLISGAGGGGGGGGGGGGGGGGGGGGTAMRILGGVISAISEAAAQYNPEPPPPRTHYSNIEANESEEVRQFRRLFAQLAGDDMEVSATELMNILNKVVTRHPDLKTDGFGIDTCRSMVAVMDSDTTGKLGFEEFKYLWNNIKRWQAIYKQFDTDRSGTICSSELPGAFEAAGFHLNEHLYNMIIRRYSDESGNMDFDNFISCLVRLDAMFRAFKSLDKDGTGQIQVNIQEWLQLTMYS
Briefly: Calpain I kinetic fluorescence enzyme inhibition assay. The settings on record: apparent Ki from IC50 by Cheng-Prussoff. It counts as biochemical. The method, then: Testing for blockade of the corresponding enzymic activities was carried out by means of kinetic fluorescence assays (excitation 390 nm, emission 460 nm).
Apparent Ki values were calculated from the experimentally determined IC50 values by the Cheng-Prussoff relation assuming a reversible competitive enzyme inhibition.
20 nM calpain-I—isolated from human erythrocytes (Calbiochem #208713), 100 μM Suc-Leu-Tyr-AMC (Bachem #I-1355) as substrate in buffer with 62 mM imidazole, 0.3 mM CaCl2, 0.10% CHAPS, 0.05% BSA, 1 mM DTT at pH 7.3 and room temperature.

Counter-ions that a name gives are not always drawn. Bounds are passed on as bounds.

Turning to `NC(=O)C(=O)C(Cc1ccccc1)NC(=O)c1cccnc1-n1ccc(CN2CCOc3ccccc32)n1` (stereo not drawn) [Example 6, 2-(3-((2H-Benzo[b][1,4]oxazin-4(3H)-yl)methyl)-1H-pyrazol-1-yl)-N-(4-amino-3,4-dioxo-1-phenylbutan-2-yl)nicotinamide], the Ki was less than 250 nM.

With `CN(Cc1ccccc1)Cc1ccn(-c2ncccc2C(=O)NC(Cc2ccccc2)C(=O)C(N)=O)n1` (stereo not drawn) [Example 21, N-(4-Amino-3,4-dioxo-1-phenylbutan-2-yl)-2-(3-((benzyl(methyl)amino)methyl)-1H-pyrazol-1-yl)nicotinamide trifluoroacetate], the Ki was less than 250 nM.

`CCCCC(NC(=O)c1cccnc1-n1ccc(CN2Cc3ccccc3C2)n1)C(=O)C(N)=O` (stereo not drawn) [Example 39, N-(1-Amino-1,2-dioxoheptan-3-yl)-2-(3-(isoindolin-2-ylmethyl)-1H-pyrazol-1-yl)nicotinamide]: the Ki is less than 250 nM.

For the compound `CC1CN(Cc2ccn(-c3ncccc3C(=O)NC(Cc3ccccc3)C(=O)C(N)=O)n2)CC(C)O1` (single isomer, unassigned) [Example 2b, N-(4-Amino-3,4-dioxo-1-phenylbutan-2-yl)-2-(3-((2,6-dimethylmorpholino)-methyl)-1H-pyrazol-1-yl)nicotinamide], the Ki was less than 250 nM.

With `CN(Cc1ccn(-c2ncccc2C(=O)NC(Cc2ccccc2)C(=O)C(N)=O)n1)c1ccccc1` (stereo not drawn) [Example 16, N-(4-Amino-3,4-dioxo-1-phenylbutan-2-yl)-2-(3-((methyl(phenyl)amino)methyl)-1H-pyrazol-1-yl)nicotinamide], the Ki was less than 250 nM.

`NC(=O)C(=O)C(Cc1ccccc1)NC(=O)c1cccnc1-n1ccc(CN2CC3C[C@@H](c4ccc(F)cc4)C3C2)n1` (stereo partly drawn) [Example 27, N-(4-Amino-3,4-dioxo-1-phenylbutan-2-yl)-2-(3-(((6R)-6-(4-fluorophenyl)-3-azabicyclo[3.2.0]heptan-3-yl)methyl)-1H-pyrazol-1-yl)nicotinamide trifluoroacetate]: the Ki was less than 250 nM.

In the case of `CC(C)(C)OC(=O)N1CCc2cn(-c3ncccc3C(=O)NC(Cc3ccccc3)C(=O)C(N)=O)nc2C1` (stereo not drawn) [Example 45, tert-Butyl 2-(3-(4-amino-3,4-dioxo-1-phenylbutan-2-ylcarbamoyl)pyridin-2-yl)-2,4,5,7-tetrahydro-6H-pyrazolo[3,4-c]pyridine-6-carboxylate], the Ki was less than 250 nM.

On to `CCCCC(NC(=O)c1cccnc1-n1ccc(CN2CCC(F)(F)CC2)n1)C(=O)C(N)=O` (stereo not drawn) [Example 38, N-(1-Amino-1,2-dioxoheptan-3-yl)-2-(3-((4,4-difluoropiperidin-1-yl)methyl)-1H-pyrazol-1-yl)nicotinamide], for which the Ki was less than 250 nM.

With `CN(Cc1ccn(-c2ncccc2C(=O)NC(Cc2ccccc2)C(=O)C(N)=O)n1)CC1CCC(C(F)(F)F)CC1` (stereo not drawn) [Example 25, N-(4-Amino-3,4-dioxo-1-phenylbutan-2-yl)-2-(3-((methyl((4-(trifluoromethyl)cyclohexyl)methyl)amino)methyl)-1H-pyrazol-1-yl)nicotinamide trifluoroacetate], the Ki is less than 250 nM.

Take `NC(=O)C(=O)C(Cc1ccccc1)NC(=O)c1cccnc1-n1cc2c(n1)CCN(CC1CC1)C2` (stereo not drawn) [Example 41, N-(4-Amino-3,4-dioxo-1-phenylbutan-2-yl)-2-(5-(cyclopropylmethyl)-4,5,6,7-tetrahydro-2H-pyrazolo[4,3-c]pyridin-2-yl)nicotinamide]: the Ki is less than 250 nM.

In the case of `NC(=O)C(=O)C(Cc1ccccc1)NC(=O)c1cccnc1-n1ccc(CN2CCC2)n1` (stereo not drawn) [Example 11, N-(4-Amino-3,4-dioxo-1-phenylbutan-2-yl)-2-(3-(azetidin-1-ylmethyl)-1H-pyrazol-1-yl)nicotinamide trifluoroacetate], the Ki lay within 250 to 400 nM.

Turning to `CC1CCN(Cc2ccn(-c3ncccc3C(=O)NC(Cc3ccccc3)C(=O)C(N)=O)n2)CC1` (stereo not drawn) [Example 24, N-(4-Amino-3,4-dioxo-1-phenylbutan-2-yl)-2-(3-((4-methylpiperidin-1-yl)methyl)-1H-pyrazol-1-yl)nicotinamide trifluoroacetate], the Ki is less than 250 nM.

Consider `NC(=O)C(=O)C(Cc1ccccc1)NC(=O)c1cccnc1-n1ccc(CN2CCCCC2)n1` (stereo not drawn) [Example 7, N-(4-Amino-3,4-dioxo-1-phenylbutan-2-yl)-2-(3-(piperidin-1-ylmethyl)-1H-pyrazol-1-yl)nicotinamide hydrochloride], for which the Ki was less than 250 nM.

As to `NC(=O)C(=O)C(Cc1ccccc1)NC(=O)c1cccnc1-n1ccc(CN2CCCC2)n1` (stereo not drawn) [Example 10, N-(4-Amino-3,4-dioxo-1-phenylbutan-2-yl)-2-(3-(pyrrolidin-1-ylmethyl)-1H-pyrazol-1-yl)nicotinamide trifluoroacetate], the Ki is 250 to 400 nM.

As for `CCCCC(NC(=O)c1cccnc1-n1ccc(CN2CCCCC2)n1)C(=O)C(N)=O` (stereo not drawn) [Example 37, N-(1-Amino-1,2-dioxoheptan-3-yl)-2-(3-(piperidin-1-ylmethyl)-1H-pyrazol-1-yl)nicotinamide], the Ki was less than 250 nM.

Take `CN(Cc1ccn(-c2ncccc2C(=O)NC(Cc2ccccc2)C(=O)C(N)=O)n1)C1CC1` (stereo not drawn) [Example 26, N-(4-Amino-3,4-dioxo-1-phenylbutan-2-yl)-2-(3-((cyclopropyl(methyl)amino)methyl)-1H-pyrazol-1-yl)nicotinamide trifluoroacetate]: the Ki is less than 250 nM.

Consider `NC(=O)C(=O)C(Cc1ccccc1)NC(=O)c1cccnc1-n1ccc(CN2CCOC3CCCCC32)n1` (single isomer, unassigned) [Example 8a, 2-(3-((2H-Benzo[b][1,4]oxazin-4(3H,4aH,5H,6H,7H,8H,8aH)-yl)methyl)-1H-pyrazol-1-yl)-N-(4-amino-3,4-dioxo-1-phenylbutan-2-yl)nicotinamide trifluoroacetate], for which the Ki was less than 250 nM.

In the case of `NC(=O)C(=O)C(Cc1ccccc1)NC(=O)c1cccnc1-n1ccc(CN2CCC3(CC2)COC3)n1` (stereo not drawn) [Example 17, 2-(3-(2-Oxa-7-azaspiro[3.5]nonan-7-ylmethyl)-1H-pyrazol-1-yl)-N-(4-amino-3,4-dioxo-1-phenylbutan-2-yl)nicotinamide trifluoroacetate], the Ki was less than 250 nM.

For `NC(=O)C(=O)C(Cc1ccccc1)NC(=O)c1cccnc1-n1ccc(CN2CC3COCC3C2)n1` (stereo not drawn) [Example 14, N-(4-Amino-3,4-dioxo-1-phenylbutan-2-yl)-2-(3-((dihydro-1H-furo[3,4-c]pyrrol-5(3H,6H,6aH)-yl)methyl)-1H-pyrazol-1-yl)nicotinamide trifluoroacetate], the Ki is less than 250 nM.

Take `NC(=O)C(=O)C(Cc1ccccc1)NC(=O)c1cccnc1-n1ccc(CN2Cc3cccc(F)c3C2)n1` (stereo not drawn) [Example 33, N-(4-Amino-3,4-dioxo-1-phenylbutan-2-yl)-2-(3-((4-fluoroisoindolin-2-yl)methyl)-1H-pyrazol-1-yl)nicotinamide trifluoroacetate]: the Ki is less than 250 nM.

As for `CC(C)(C)OC(=O)N1Cc2cn(-c3ncccc3C(=O)NC(Cc3ccccc3)C(=O)C(N)=O)nc2C1` (stereo not drawn) [Example 43, tert-Butyl 2-(3-(4-amino-3,4-dioxo-1-phenylbutan-2-ylcarbamoyl)pyridin-2-yl)-4,6-dihydropyrrolo[3,4-c]pyrazole-5(2H)-carboxylate], the Ki was less than 250 nM.

Consider `CC1CN(Cc2ccn(-c3ncccc3C(=O)NC(Cc3ccccc3)C(=O)C(N)=O)n2)CC(C)O1` (single isomer, unassigned) [Example 2a, N-(4-Amino-3,4-dioxo-1-phenylbutan-2-yl)-2-(3-((2,6-dimethylmorpholino)-methyl)-1H-pyrazol-1-yl)nicotinamide], for which the Ki was less than 250 nM.

In the case of `CC(C)(C)C1CCN(Cc2ccn(-c3ncccc3C(=O)NC(Cc3ccccc3)C(=O)C(N)=O)n2)CC1` (stereo not drawn) [Example 23, N-(4-Amino-3,4-dioxo-1-phenylbutan-2-yl)-2-(3-((4-tert-butylpiperidin-1-yl)methyl)-1H-pyrazol-1-yl)nicotinamide], the Ki is less than 250 nM.

Consider `NC(=O)C(=O)C(Cc1ccccc1)NC(=O)c1cccnc1-n1cc2c(n1)CNCC2` (stereo not drawn) [Example 46, N-(4-Amino-3,4-dioxo-1-phenyl-2-butanyl)-2-(4,5,6,7-tetrahydro-pyrazolo[3,4-c]pyridin-2-yl)nicotinamide hydrochloride], for which the Ki is less than 250 nM.

The values are drawn from patent US9150545B2, “Carboxamide compounds and their use as calpain inhibitors V” (ABBVIE DEUTSCHLAND GMBH & CO. KG, priority 2012, dated 2015).
